Legend:
[1] = biological target: 5-hydroxytryptamine receptor 2A (Rattus norvegicus, UniProt P14842); assay: ChEBML_2648
Procedure: Compound was evaluated for affinity towards cerebral 5-hydroxytryptamine 2A receptor in homogenate of caudate putamen tissue from rat brain

[2] = biological target: T1, 5-hydroxytryptamine receptor 2C (Rattus norvegicus, UniProt P08909); assay: ChEBML_2831
T1 sequence (P08909 whole entry): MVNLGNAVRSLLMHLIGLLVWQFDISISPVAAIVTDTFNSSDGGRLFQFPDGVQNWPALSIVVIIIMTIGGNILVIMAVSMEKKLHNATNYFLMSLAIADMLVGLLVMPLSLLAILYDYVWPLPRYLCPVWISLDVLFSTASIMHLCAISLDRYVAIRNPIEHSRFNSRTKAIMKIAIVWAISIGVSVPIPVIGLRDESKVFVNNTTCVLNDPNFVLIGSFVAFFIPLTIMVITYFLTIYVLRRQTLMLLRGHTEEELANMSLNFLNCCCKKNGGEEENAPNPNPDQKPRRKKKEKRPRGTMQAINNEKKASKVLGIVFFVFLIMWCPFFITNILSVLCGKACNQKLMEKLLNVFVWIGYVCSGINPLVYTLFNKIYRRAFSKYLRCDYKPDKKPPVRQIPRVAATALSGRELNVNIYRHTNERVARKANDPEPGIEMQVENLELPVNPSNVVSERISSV
Procedure: Compound was evaluated for affinity towards cerebral 5-hydroxytryptamine 2C receptor in homogenate of caudate putamen tissue from rat brain

[3] = biological target: D(2) dopamine receptor (Rattus norvegicus) (UniProt P61169); assay: Compound was evaluated for affinity towards dopamine D2-like receptor in homogenate of caudate putamen tissue from rat brain
D(1A) dopamine receptor = D(1A) dopamine receptor (Rattus norvegicus, UniProt P18901); assay: ChEBML_59008
Procedure: Compound was evaluated for affinity towards dopamine D1-like receptor in homogenate of caudate putamen tissue from rat brain

Chain of D(2) dopamine receptor (Rattus norvegicus) (P61169 whole entry, looked up): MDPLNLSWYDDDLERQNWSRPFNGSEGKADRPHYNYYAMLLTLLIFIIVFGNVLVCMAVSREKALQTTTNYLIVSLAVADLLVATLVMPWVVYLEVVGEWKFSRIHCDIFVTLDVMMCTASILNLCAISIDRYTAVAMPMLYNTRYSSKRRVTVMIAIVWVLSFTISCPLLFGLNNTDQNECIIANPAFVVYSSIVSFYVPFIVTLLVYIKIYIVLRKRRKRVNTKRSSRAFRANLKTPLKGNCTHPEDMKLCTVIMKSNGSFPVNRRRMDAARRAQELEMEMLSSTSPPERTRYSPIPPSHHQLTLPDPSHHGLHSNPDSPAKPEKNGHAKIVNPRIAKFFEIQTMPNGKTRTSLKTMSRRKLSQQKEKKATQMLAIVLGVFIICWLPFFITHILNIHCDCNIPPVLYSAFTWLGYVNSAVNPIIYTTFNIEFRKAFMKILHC
Chain of D(1A) dopamine receptor (P18901 whole entry): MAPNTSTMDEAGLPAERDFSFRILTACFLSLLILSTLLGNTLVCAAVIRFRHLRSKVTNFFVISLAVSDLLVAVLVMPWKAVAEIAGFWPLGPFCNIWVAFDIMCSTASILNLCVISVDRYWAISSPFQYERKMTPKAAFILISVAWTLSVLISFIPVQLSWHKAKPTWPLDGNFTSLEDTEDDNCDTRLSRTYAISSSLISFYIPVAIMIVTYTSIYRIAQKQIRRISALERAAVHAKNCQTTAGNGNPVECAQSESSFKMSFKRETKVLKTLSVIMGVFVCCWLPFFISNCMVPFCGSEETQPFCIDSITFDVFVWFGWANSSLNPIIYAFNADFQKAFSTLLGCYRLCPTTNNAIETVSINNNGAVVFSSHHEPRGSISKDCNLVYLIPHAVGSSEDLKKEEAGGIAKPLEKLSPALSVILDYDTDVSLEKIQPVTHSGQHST
Chain of 5-hydroxytryptamine receptor 2A (P14842 whole entry): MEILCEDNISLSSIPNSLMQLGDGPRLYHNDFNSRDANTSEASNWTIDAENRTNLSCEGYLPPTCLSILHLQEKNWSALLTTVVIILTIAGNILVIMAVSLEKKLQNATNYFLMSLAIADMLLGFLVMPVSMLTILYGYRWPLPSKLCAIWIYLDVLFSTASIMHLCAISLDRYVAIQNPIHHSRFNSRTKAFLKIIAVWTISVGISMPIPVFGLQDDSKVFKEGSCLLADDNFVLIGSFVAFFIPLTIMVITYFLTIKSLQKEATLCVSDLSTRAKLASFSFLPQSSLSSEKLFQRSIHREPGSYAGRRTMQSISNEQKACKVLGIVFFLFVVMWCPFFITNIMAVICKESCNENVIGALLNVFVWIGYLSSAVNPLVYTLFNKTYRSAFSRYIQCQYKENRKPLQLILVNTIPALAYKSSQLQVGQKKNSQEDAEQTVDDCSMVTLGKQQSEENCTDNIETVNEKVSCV

Ki [1]	Ki [2]	Ki [3]	Ki (D(1A) dopamine receptor)	Structure (SMILES)
17 nM	29 nM	549 nM	0.61 nM	CN1CCc2cc(Cl)c(O)cc2C(c2ccccc2C(=O)C2=CC=C[C@@H]2[Re]([CH]=O)([CH]=O)[CH]=O)C1 (some centres undefined) [Cyclopentadienyltricarbonylrheniumbenzazepine (2`-CPTR-SCH-23390)]
		1120 nM		CN1CCc2cc(Cl)c(O)cc2C(c2cccc(Br)c2)C1 (centres undefined) [5-(3-Bromo-phenyl)-8-chloro-3-methyl-2,3,4,5-tetrahydro-1H-benzo[d]azepin-7-ol]
227 nM	106 nM	> 10000 nM	2.9 nM	CN1CCc2cc(Cl)c(O)cc2C(c2cccc(C(=O)C3=CC=C[C@@H]3[Re]([CH]=O)([CH]=O)[CH]=O)c2)C1 (some centres undefined) [Cyclopentadienyltricarbonylrheniumbenzazepine (3`-CPTR-SCH-23390)]
